# According to US10131653B2, “Heterocyclic compound” (TAKEDA PHARMACEUTICAL COMPANY LIMITED, priority 2015, dated 2018):
# Structures can show the parent of a compound that is named as a salt. Where two headings read alike, the source gives them in different places.
# Legend:
# human OX1 receptor = biological target: T1, human OX1 receptor (Homo sapiens, UniProt O43613); assay: Measurement of orexin receptor antagonistic activity (calcium fluorescence, FLIPRtetra); assay type: cell-based; details: CHO, read-out: Human Orexin1 receptor inhibition (at 10 μM)
# T1 construct: expressed in transfected cells; host or cells: CHO cells
# T1 sequence (O43613 1-425): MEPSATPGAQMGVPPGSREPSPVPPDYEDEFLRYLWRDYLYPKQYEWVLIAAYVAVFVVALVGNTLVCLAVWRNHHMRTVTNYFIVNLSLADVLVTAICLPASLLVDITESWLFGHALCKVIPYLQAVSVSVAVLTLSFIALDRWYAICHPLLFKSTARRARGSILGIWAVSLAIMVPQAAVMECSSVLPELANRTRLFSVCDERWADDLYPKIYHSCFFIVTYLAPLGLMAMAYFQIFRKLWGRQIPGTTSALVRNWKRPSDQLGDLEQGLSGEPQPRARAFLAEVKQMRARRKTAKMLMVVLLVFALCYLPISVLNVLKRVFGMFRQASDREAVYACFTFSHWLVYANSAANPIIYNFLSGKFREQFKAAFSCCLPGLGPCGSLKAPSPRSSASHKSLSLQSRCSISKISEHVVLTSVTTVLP
# Experimental: (§1) Measurement of Orexin Receptor Antagonistic Activity
# (§2) CHO cells forcibly expressing human OX1 receptor or human OX2 receptor were seeded in each well of 384 well black transparent bottom plate (BD Falcon) at 7,500 cells/well, and cultured for one day in a 5% CO2 incubator at 37° C. […] The plate was stood for 30 min in a 5% CO2 incubator at 37° C., and further stood at room temperature for 30 min. A test compound prepared by diluting with assay buffer B (HBSS, 20 mM HEPES, 0.1% BSA) was added at 10 μL/well, and then OX-A (OX1 receptor, final concentration; 1 nM) or OX-A (OX2 receptor, final concentration; 0.3 nM) was added at 10 μL/well, and the fluorescence value was measured by FLIPRtetra (Molecular Devices) every one sec for 2 min.
# human OX2 receptor = biological target: T2, human OX2 receptor (Homo sapiens, UniProt O43614); assay: as above; assay type: cell-based; details: CHO, read-out: Human Orexin2 receptor inhibition (at 10 μM)
# T2 construct: expressed in transfected cells; host or cells: CHO cells
# T2 sequence (O43614 1-444): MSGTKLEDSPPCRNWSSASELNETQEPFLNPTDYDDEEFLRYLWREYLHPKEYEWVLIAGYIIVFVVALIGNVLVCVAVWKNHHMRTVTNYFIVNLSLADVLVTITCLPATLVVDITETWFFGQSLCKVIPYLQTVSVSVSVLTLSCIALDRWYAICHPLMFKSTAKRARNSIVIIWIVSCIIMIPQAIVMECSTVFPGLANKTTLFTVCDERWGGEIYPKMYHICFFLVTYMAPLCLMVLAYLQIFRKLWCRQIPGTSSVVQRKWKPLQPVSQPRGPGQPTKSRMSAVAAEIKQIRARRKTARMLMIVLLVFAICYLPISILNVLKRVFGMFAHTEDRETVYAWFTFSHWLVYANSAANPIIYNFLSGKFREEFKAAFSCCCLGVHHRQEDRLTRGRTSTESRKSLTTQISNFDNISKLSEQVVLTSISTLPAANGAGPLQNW
# Experimental: as §1, §2
# [1] = 10 μM test compound, CHO cells expressing human OX1 receptor, OX-A 1 nM
# [2] = 10 μM test compound, CHO cells expressing human OX2 receptor, OX-A 0.3 nM
SMILES,inhibition at 10 µM (human OX1 receptor; [1]) [%],inhibition at 10 µM (human OX2 receptor; [2]) [%],inhibition at 10 µM (human OX1 receptor) [%],inhibition at 10 µM (human OX2 receptor) [%]
"Cc1cc(C)nc(N2CCN(C(=O)c3cc(F)ccc3-n3nccn3)[C@H](C)CO2)n1 [Example 161, ((6R)-2-(4,6-dimethylpyrimidin-2-yl)-6-methyl-1,2,5-oxadiazepan-5-yl)(5-fluoro-2-(2H-1,2,3-triazol-2-yl)phenyl)methanone hydrochloride]",46,102,–,–
"Cc1nc(N2CCN(C(=O)c3ccccc3-n3nccn3)C[C@H](C)O2)cc(C(F)(F)F)n1 [Example 92, ((7S)-7-methyl-2-(2-methyl-6-(trifluoromethyl)pyrimidin-4-yl)-1,2,5-oxadiazepan-5-yl)(2-(2H-1,2,3-triazol-2-yl)phenyl)methanone]",73,101,–,–
"Cc1cc(C)nc(N2CCN(C(=O)c3cccc4nc(C)oc34)CCO2)n1 [Example 70, (2-(4,6-dimethylpyrimidin-2-yl)-1,2,5-oxadiazepan-5-yl) (2-methyl-1,3-benzoxazol-7-yl)methanone]",–,–,-6,17
"Cc1cc(C)nc(N2CCN(C(=O)c3cccc(-c4ccccc4)c3)CCO2)n1 [Example 78, biphenyl-3-yl (2-(4,6-dimethylpyrimidin-2-yl)-1,2,5-oxadiazepan-5-yl)methanone]",27,52,–,–
"Cc1cc(C)nc(N2CCN(C(=O)c3cc(C)ccc3-n3nccn3)CCO2)c1 [Example 34, (2-(4,6-dimethylpyridin-2-yl)-1,2,5-oxadiazepan-5-yl)(5-methyl-2-(2H-1,2,3-triazol-2-yl)phenyl)methanone]",97,99,–,–
"Cc1cc(N2C[C@H](C)N(C(=O)c3ccccc3-n3nccn3)[C@H](C)CO2)nc(C)n1 [Example 172, ((4S,6R)-2-(2,6-dimethylpyrimidin-4-yl)-4,6-dimethyl-1,2,5-oxadiazepan-5-yl)(2-(2H-1,2,3-triazol-2-yl)phenyl)methanone]",103,100,–,–
"COc1cc(N2CCN(C(=O)c3ccccc3-n3nccn3)[C@H](C)CO2)nc(C)n1 [Example 160, ((6R)-2-(6-methoxy-2-methylpyrimidin-4-yl)-6-methyl-1,2,5-oxadiazepan-5-yl)(2-(2H-1,2,3-triazol-2-yl)phenyl)methanone]",82,101,–,–
"Cc1cc(C)nc(N2CCN(C(=O)c3ccccc3-c3ccco3)CCO2)n1 [Example 81, (2-(4,6-dimethylpyrimidin-2-yl)-1,2,5-oxadiazepan-5-yl) (2-(2-furyl)phenyl)methanone]",85,99,–,–
"COc1ncnc(N2CCN(C(=O)c3ccccc3-n3nccn3)[C@H](C)CO2)n1 [Example 159, ((6R)-2-(4-methoxy-1,3,5-triazin-2-yl)-6-methyl-1,2,5-oxadiazepan-5-yl)(2-(2H-1,2,3-triazol-2-yl)phenyl)methanone]",16,89,–,–
"Cc1cc(N2C[C@H](C)N(C(=O)c3ccccc3-c3nccs3)[C@H](C)CO2)nc(C)n1 [Example 5, ((4S,6R)-2-(2,6-dimethylpyrimidin-4-yl)-4,6-dimethyl-1,2,5-oxadiazepan-5-yl)(2-(1,3-thiazol-2-yl)phenyl)methanone]",101,99,–,–
"Cc1cc(N2CCN(C(=O)c3ccccc3-c3ncccn3)[C@H](C)CO2)nc(C)n1 [Example 213, ((6R)-2-(2,6-dimethylpyrimidin-4-yl)-6-methyl-1,2,5-oxadiazepan-5-yl)(2-(pyrimidin-2-yl)phenyl)methanone]",47,102,–,–
"Cc1cc(N2CCN(C(=O)c3cc(F)c(F)cc3-c3ncccn3)CCO2)nc(C)n1 [Example 228, (4,5-difluoro-2-(pyrimidin-2-yl)phenyl)(2-(2,6-dimethylpyrimidin-4-yl)-1,2,5-oxadiazepan-5-yl)methanone]",36,99,–,–
"Cc1cc(C)nc(N2CCN(C(=O)c3ccc(Cl)cc3Cl)CCO2)n1 [Example 59, (2,4-dichlorophenyl) (2-(4,6-dimethylpyrimidin-2-yl)-1,2,5-oxadiazepan-5-yl)methanone]",–,–,1,65
"Cc1cc(N2CCN(C(=O)c3ccccc3-c3cccs3)CCO2)nc(C)n1 [Example 23, (2-(2,6-dimethylpyrimidin-4-yl)-1,2,5-oxadiazepan-5-yl) (2-(2-thienyl)phenyl)methanone hydrochloride]",88,101,–,–
"Cc1cc(C)nc(N2CCN(C(=O)c3cc(C#N)ccc3C)CCO2)n1 [Example 83, 3-((2-(4,6-dimethylpyrimidin-2-yl)-1,2,5-oxadiazepan-5-yl)carbonyl)-4-methylbenzonitrile]",–,–,7,24
"Cc1cc(C)nc(N2CCN(C(=O)c3cc(C)ccc3-n3nccn3)[C@H](C)CO2)c1 [Example 142, ((6R)-2-(4,6-dimethylpyridin-2-yl)-6-methyl-1,2,5-oxadiazepan-5-yl) (5-methyl-2-(2H-1,2,3-triazol-2-yl)phenyl)methanone]",–,–,99,97
"Cc1csc(N2CCN(C(=O)c3cc(F)ccc3-n3nccn3)[C@H](C)CO2)n1 [Example 164, (5-fluoro-2-(2H-1,2,3-triazol-2-yl)phenyl)((6R)-6-methyl-2-(4-methyl-1,3-thiazol-2-yl)-1,2,5-oxadiazepan-5-yl)methanone]",8,43,–,–
"Cc1cc(N2CCN(C(=O)c3cc(C4CCC4)ccc3-n3nccn3)CCO2)nc(C)n1 [Example 41, (5-cyclobutyl-2-(2H-1,2,3-triazol-2-yl)phenyl)(2-(2,6-dimethylpyrimidin-4-yl)-1,2,5-oxadiazepan-5-yl)methanone]",10,56,–,–
"Cc1cc(N2C[C@@H](C)N(C(=O)c3ccccc3-n3nccn3)[C@@H](C)CO2)nc(C)n1 [Example 185, ((4R,6S)-2-(2,6-dimethylpyrimidin-4-yl)-4,6-dimethyl-1,2,5-oxadiazepan-5-yl)(2-(2H-1,2,3-triazol-2-yl)phenyl)methanone]",22,31,–,–
"CC[C@@H]1CON(c2cc(C)nc(C)n2)CCN1C(=O)c1ccccc1-n1nccn1 [Example 168, ((6R)-2-(2,6-dimethylpyrimidin-4-yl)-6-ethyl-1,2,5-oxadiazepan-5-yl)(2-(2H-1,2,3-triazol-2-yl)phenyl)methanone]",95,99,–,–
"Cc1cc(N2CCN(C(=O)c3cc(F)c(F)cc3-n3nccn3)C[C@H](C)O2)nc(C(F)(F)F)n1 [Example 108, (4,5-difluoro-2-(2H-1,2,3-triazol-2-yl)phenyl)((7S)-7-methyl-2-(6-methyl-2-(trifluoromethyl)pyrimidin-4-yl)-1,2,5-oxadiazepan-5-yl)methanone]",100,101,–,–
"Cc1ccc(-n2nccn2)c(C(=O)N2CCON(c3ncc4ccccc4n3)CC2)c1 [Example 38, (5-methyl-2-(2H-1,2,3-triazol-2-yl)phenyl)(2-(quinazolin-2-yl)-1,2,5-oxadiazepan-5-yl)methanone]",92,90,–,–
"Cc1nccc(N2CCN(C(=O)c3cc(Cl)ccc3-c3ncccn3)C[C@H](C)O2)n1 [Example 219, (5-chloro-2-(pyrimidin-2-yl)phenyl)((7S)-7-methyl-2-(2-methylpyrimidin-4-yl)-1,2,5-oxadiazepan-5-yl)methanone]",72,100,–,–
"Cc1cc(C)nc(N2CCN(C(=O)c3ccccc3-c3ccccc3)CCO2)n1 [Example 79, biphenyl-2-yl (2-(4,6-dimethylpyrimidin-2-yl)-1,2,5-oxadiazepan-5-yl)methanone]",57,98,–,–
"Cc1cc(C)nc(N2CCN(C(=O)c3ccc(Cl)cc3)CCO2)n1 [Example 40, (4-chlorophenyl)(2-(4,6-dimethylpyrimidin-2-yl)-1,2,5-oxadiazepan-5-yl)methanone]",–,4,–,–
